Read-outs that look alike come from different tables or passages of the source.
Key:
HCT116 p53−/− cells [1] = test: Antiproliferative activity, sulforhodamine B (SRB) assay; assay type: cell-based, human; conditions: Homo sapiens, HCT-116, 48 h, 48 h treatment, read-out: HCT116 p53−/− GI50
Method: (§1) Tumor cells were cultured in RPMI-1640 with UltraGlutamine (Lonza, VWR), supplemented with 10% fetal bovine serum (FBS; Gibco, Alfagene) and maintained in a humidified incubator at 37 °C with 5% CO2. Cell lines were seeded in 96-well plates at the cells/well density of 5.0 × 10^3.

HCT116 p53+/+ cells [2] = test: as above; assay type: cell-based, human; conditions: for S.I. (selectivity index): HCT116 p53−/− versus HCT116 p53+/+; for GI50: Homo sapiens, HCT-116, 48 h treatment, read-out: HCT116 p53+/+ GI50
Method: as §1

[3] = Bioactivation: S9 rat liver fraction and HLM incubations in the presence of glutathione; assay type: in vitro ADME, human
Method: For the generation of Phase I metabolites: tested compounds, at a 10 μM concentration (1 μL of 5 mM DMSO stock solution), were incubated with HLM (1 mg protein/mL), Vivid® regenerating system (5 μL) and NADPH (1mM) in ABIC 50 mM buffer pH 7.4, for a total incubation volume of 500 μL. Incubations were run in duplicate, at 37 °C. Aliquots were collected at 0, 5, 10, 20, 30, 40, 50, 60, 75, 90, 120, 180 min and reactions were stopped by adding and ice-cold solution of reserpine (2.5 μM) in acetonitrile. Additional aliquots were taken at 0 and 120 min and subsequently treated with L-lysine (100 µM) and sodium cyanoborohydride (10 µM) or glutathione (100 µM). Following centrifugation (10,000 rpm, 15 min, RT), the clear supernatants were collected and analyzed LC-ESI-HRMS/MS. […]
Tested compounds at a 10 μM concentration (1 μL of 5 mM DMSO stock solution) were incubated with rat liver S9 fraction (2 mg protein/mL), Vivid® regenerating system (2 μL) and NADPH (1mM) in ABIC 50 mM buffer pH 7.4, for a total incubation volume of 500 μL. […] Following centrifugation (10,000 rpm, 15 min, RT) the clear supernatants were collected and analyzed LC-ESI-HRMS/MS. […]

[4] = Human liver microsomes incubations: half-life and intrinsic clearance; assay type: in vitro ADME; conditions: for Intrinsic Clearance / clearance classification: HLM; for Intrinsic Clearance: calculated from half-life (Equation 2); for clearance classification: classification after ref 32; for half-life at 10 μM: human, liver microsomes, pH 7.4, HLM 1 mg protein/mL, NADPH, 37 °C
Method: For the generation of Phase I metabolites: tested compounds, at a 10 μM concentration (1 μL of 5 mM DMSO stock solution), were incubated with HLM (1 mg protein/mL), Vivid® regenerating system (5 μL) and NADPH (1mM) in ABIC 50 mM buffer pH 7.4, for a total incubation volume of 500 μL. Incubations were run in duplicate, at 37 °C. Aliquots were collected at 0, 5, 10, 20, 30, 40, 50, 60, 75, 90, 120, 180 min and reactions were stopped by adding and ice-cold solution of reserpine (2.5 μM) in acetonitrile. Additional aliquots were taken at 0 and 120 min and subsequently treated with L-lysine (100 µM) and sodium cyanoborohydride (10 µM) or glutathione (100 µM). Following centrifugation (10,000 rpm, 15 min, RT), the clear supernatants were collected and analyzed LC-ESI-HRMS/MS. Control incubations were conducted in the same conditions: (1) using DMSO as negative control, in absence of the test drug; (2) using heat-denatured HLM (90 °C, 15 min); (3) using nevirapine, as a positive control, instead of the tested compound; and (4) in absence of NADPH co-factor.
The in vitro depletion half-lives of tested compounds t1/2 were calculated using Equation (1), assuming that testing compounds follow a first-order kinetic trend. The “slope” was determined from linear fitting of the natural logarithm of the concentration of drug remaining plotted against time:(1) t1/2=ln2/slope
The intrinsic clearance in HLM (CLint, HLM) was calculated using Equation (2):(2) CLint HLM =ln2/ t1/2 x mL incubation/mg microsomes x 45 mg microsomes/g liver x 26 g liver/Kg b.w.

[5] = In vitro reactions with bionucleophiles
Method: To a solution of compound 13d in acetonitrile (1.00 eq., 10.1 mg in 400 µL, 5.04 × 10^−2 M) reduced glutathione (4.00 eq. 25.2 mg, 82.00 µmol) dissolved in 400 µL of ABIC buffer 50 mM pH 7.4 was added. The reaction mixture was incubated for 24 h at 37 °C and monitored by LC-ESI-HRMS/MS.
To a solution of compound 13k in acetonitrile (1.00 eq., 4.3 mg in 200 µL, 3.92 × 10^−2 M) reduced glutathione (4.00 eq. 9.64 mg, 31.36 µmol) dissolved in 200 µL of ABIC buffer 50 mM pH 7.4 was added. The reaction mixture was incubated for 24 h at 37 °C and monitored by LC-ESI-HRMS/MS.
SLMP53-1_M5 (1.00 eq., 2.1 mg, dissolved in 150 µL of ACN) was added to a L-lysine (2 eq.) solution in 50 mM ABIC buffer pH 7.4. Following incubation for 24 h at 37 °C a solution of cyanoborohydride (2 eq) was added. The mixture was analyzed by LC-ESI(+)-HRMS/MS.

[6] = Human plasma incubations (stability); assay type: in vitro ADME; conditions: 37 °C, 40 μM
Method: Human plasma incubations were performed in duplicate, at 37 °C, by standard methodology. Specifically, incubations contained 40 μM of the test compound for a final volume of 1 mL. The mixtures were incubated for a total time of 24 h, and aliquots following 0, 30, 60, 120, 180 min and 24 h and quenched with a cold solution of reserpine 0.1 mM in acetonitrile. Following centrifugation (10,000 rpm, 10 min, RT), the clear supernatants were collected and analyzed by LC-ESI(+)-MS/MS. Additional control assays were conducted using PBS pH 7.4 instead of plasma solution and using procaine as a positive control.

[7] = Glucuronidation in alamethicin induced-HLM with NADPH and UDPGA; assay type: in vitro ADME, human; conditions: NADPH, UDPGA, LC-ESI(-)-HRMS/MS
Method: For the generation of glucuronidation metabolites: HLM were preincubated for 15 min with alamethicin (25 µg/mL). Incubations were then run in duplicate at 37 °C, using the following conditions: test compounds at a concentration of 25 µM (1 μL of DMSO stock solution 5 mM), HLM (1 mg/mL, 10 μL), NADPH (5 mM), MgCl2 (2 mM), UDPGA (5 mM) for a final volume of 200 μL, in 50 mM ABIC buffer pH 7.4. Control incubations were conducted in the same conditions using: (1) DMSO as negative control, in absence of the test compound; (2) heat-denatured HLM (90 °C, 15 min); and (3) in absence of UDPGA co-factor. Aliquots (50 μL) were collected at 0 and 2 h and then quenched with 50 μL of a cold 2.5 μM reserpine solution in acetonitrile. All the samples were vortexed and centrifuged for 15 min at 10,000 rpm. The supernatants were collected and stored at −20 °C until further analysis by LC-ESI-HRMS/MS.

[8] = parameters: method as in PMID 26735173; conditions: cited from earlier work
HCT116 p53+/+ cells [9] = test system: HCT116 p53+/+ cells; parameters: method as in PMID 26735173; conditions: 48 h treatment; cited from earlier work
HCT116 p53−/− cells [10] = test system: HCT116 p53−/− cells; parameters: method as in PMID 26735173; conditions: 48 h treatment; cited from earlier work
[11] = mean ± SEM of 3–5 independent experiments
[12] = mean ± SEM of 5 independent experiments

Row | Structure (SMILES) | GI50 (HCT116 p53−/− cells [1]; [11]) [µM] | S.I. (selectivity index) (HCT116 p53+/+ cells [2]) | GI50 (HCT116 p53+/+ cells [2]; [11]) [µM] | GSH adducts stemming from the bioactivation of Phase I metabolites ([3]; S9 rat liver fraction incubation in the presence of GSH) | Intrinsic Clearance [4] [mL/min/kg] | clearance classification [4] | half-life at 10 μM [4] [h] | products of addition of GSH with concomitant loss of bromine ([5]; with or without enzymatic conditions (S9 rat liver incubations)) | stability towards plasmatic enzymes [6] | Phase II (glucuronic acid conjugate) metabolites identified [7] | toxicity alerts in vivo [8] | GI50 (HCT116 p53+/+ cells [9]) [µM] | GSH adducts identified ([3]; S9 rat liver fraction and HLM in the presence of GSH) | GI50 (HCT116 p53−/− cells [10]) [µM] | GI50 (HCT116 p53−/− cells [1]; [12]) [µM] | GI50 (HCT116 p53+/+ cells [2]; [12]) [µM] | reaction products upon L-lysine incubation ([5]; followed by reductive stabilization, 24 h, 37 °C) | Intrinsic Clearance ([4]; listed as SLMP53-2 (7)) [mL/min/kg]
1 | O=C1c2ccccc2[C@@]2(c3ccccc3)OC[C@H](Cc3c(Br)n(Cc4ccccc4)c4ccccc34)N12 [Compound 13k, (3S, 9bR)-3-((1-benzyl-2-bromo-1H-indol-3-yl)methyl)-9b-phenyl-2,3-dihydrooxazolo[2,3-a]isoindol-5(9bH)-one] | 30.5 ± 2.1 | 3.8 | 8.09 ± 2.01 | no adducts stemming from the bioactivation of Phase I metabolites were identified | 3.4 | low clearance | 2.45 | no products compatible with the addition of GSH, and the concomitant loss of bromine, were detected |  |  |  |  |  |  |  |  |  | 
2 | CC12OCC(Cc3c[nH]c4ccccc34)N1C(=O)c1ccccc12 (stereo not shown) [SLMP53-1] |  |  |  |  | 3.67 | low clearance | 2.3 |  | stable towards plasmatic enzymes for 3 h | two glucuronic acid conjugates were identified | not associated with toxicity alerts | 15.6 ± 1.6 | Two GSH adducts were identified | 34 ± 3.5 |  |  |  | 
3 | C[C@]12OC[C@H](CC(=O)c3ccccc3NC=O)N1C(=O)c1ccccc12 [SLMP53-1_M5, N-(2-(2-((3S,9bR)-9b-methyl-5-oxo-2,3,5,9b-tetrahydrooxazolo[2,3-a]isoindol-3-yl)acetyl)phenyl)formamide] |  |  |  |  |  |  |  |  |  |  |  |  |  |  | 44 ± 1.8 | 48.8 ± 2.3 | no reaction products were obtained | 
4 | Cn1cc(C[C@H]2CO[C@]3(c4ccccc4)c4ccccc4C(=O)N23)c2ccccc21 [SLMP53-2] | 17.7 ± 2.3 | 2.1 | 8.4 ± 1.1 |  |  | low clearance | 2.45 |  | stable towards plasmatic enzymes for 3 h | no Phase II metabolites were identified |  |  |  |  |  |  |  | 2.75
